Results as given in US6673365B1, “Formulation for treatment of thromboembolism” (priority 1996, dated 2004).

Experiment: Bioavailability in vivo in the rat after intraduodenal administration
Experimental: The formulations, A to D, respectively, were tested in vivo in the rat model using intraduodenally catheterized, nonanesthetized animals. Formulations were given as a bolus. Blood samples were withdrawn at certain time points for up to 4 hours after administration of the different formulations. The concentrations of HOOC—CH2—(R)-Cgl-Aze-Pab were analyzed in the plasma and the bioavailabilities calculated from the Area under the curve (AUC) using standard pharmacokinetic methods (Rowland and Tozer, Clinical Pharmacokinetics, concepts and applications, 1980).
The bioavailability increased tenfold to twentyfold when the different formulations mentioned in the invention were used, as compared to controls where only phosphate buffer of pH 8 was used (1). Formulation B was also tested in human healthy subjects using enteric coated capsules for administration directly to the duodenum. The results from the human study also indicate a tenfold increased absorption as compared to a control tablet or solution of the thrombin inhibitor base only.

CCCCCCCC(=O)OCC(O)CO (stereo not shown) [glyceryl mono-octanoate(1-monocaprylin), glyceryl mono-octanoate]
Enhancing effect, glycerides from different sources compared: most efficient enhancing effect
